Results: article PMC10400924 (The Journal of Biological Chemistry, 2023)
Like-named read-outs stand apart in the source and are kept apart here.

Assays:
[1] = target: T1, IFNγR1 (Homo sapiens, UniProt P15260); assay: biochemical
Target sequence in this assay (P15260 18-489 limits assumed): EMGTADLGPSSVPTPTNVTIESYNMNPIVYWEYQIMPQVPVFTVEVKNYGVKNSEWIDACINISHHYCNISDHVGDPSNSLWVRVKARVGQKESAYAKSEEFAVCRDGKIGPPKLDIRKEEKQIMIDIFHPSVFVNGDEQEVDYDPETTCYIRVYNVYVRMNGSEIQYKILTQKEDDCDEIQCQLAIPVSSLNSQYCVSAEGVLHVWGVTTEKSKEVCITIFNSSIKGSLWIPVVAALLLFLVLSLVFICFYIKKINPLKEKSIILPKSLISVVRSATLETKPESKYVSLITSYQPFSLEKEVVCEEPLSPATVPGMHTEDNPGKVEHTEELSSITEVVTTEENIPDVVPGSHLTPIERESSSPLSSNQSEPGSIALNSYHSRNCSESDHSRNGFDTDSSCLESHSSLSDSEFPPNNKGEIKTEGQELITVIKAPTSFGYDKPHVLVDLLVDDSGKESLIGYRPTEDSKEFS

[2] = target: T1, IFNγR1; details: 10 μM CF, 3 h, intact NK92 cells
Target sequence in this assay (P15260 18-489): as the sequence (P15260 18-489 limits assumed) above

[3] = target: interferon γ receptor 1 protein (immobilised for SPR) (UniProt P15260); assay: SPR
[4] = target: interferon γ receptor 1 protein (immobilised for SPR) (UniProt P15260); assay: SPR; remark: listed apart in the source

Chain of interferon γ receptor 1 protein (immobilised for SPR) (P15260 18-489): as the sequence (P15260 18-489 limits assumed) above
Chain of interferon γ (P01579 24-161): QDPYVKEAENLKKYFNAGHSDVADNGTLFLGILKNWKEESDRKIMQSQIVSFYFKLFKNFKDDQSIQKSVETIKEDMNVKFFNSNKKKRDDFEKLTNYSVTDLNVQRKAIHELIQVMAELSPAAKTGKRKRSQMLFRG

Molecule	Kd [1] [nM]	thermal stability (CETSA) [2]	Kd [3] [nM]	Kd [4] [nM]
COc1cc(/C=C/C(=O)O[C@H]2CC[C@]34C[C@]35CC[C@]3(C)[C@@H]([C@H](C)CCC=C(C)C)CC[C@@]3(C)[C@@H]5CC[C@H]4C2(C)C)ccc1O [CF, Cycloartenyl ferulate]	500	When treated with CF, the thermal stability of IFNγR1 was significantly increased	–	–
interferon γ (from UniProt P01579 24-161) (ligand)	–	–	2.8	4.5
